Measurements published in the CheMixHub viscosity set.

Assay: xn = mol fraction of the nth substance listed

Nc1ccc(S(=O)(=O)[O-])cc1.[Na+] + O
viscosity [mPa·s], 101 kPa
Conditions	x1 = 9e-05	x1 = 0.00018	x1 = 0.0009	x1 = 0.0018	x1 = 0.00448	x1 = 0.00893	x1 = 0.0133	x1 = 0.0177
298.15 K	0.899	0.9	0.915	0.93	0.984	1.076	1.174	1.281
318.15 K	0.598	0.599	0.61	0.62	0.654	0.71	0.771	0.838

O=C(O)c1cccnc1 + O
viscosity [mPa·s]
Conditions	100 kPa	101 kPa
298.15 K, x1 = 0.000225	0.8934	0.8934
298.15 K, x1 = 0.000268	0.903	–
298.15 K, x1 = 0.000452	0.8963	0.8963
298.15 K, x1 = 0.0005074	–	0.8966
298.15 K, x1 = 0.0007821	–	0.9016
298.15 K, x1 = 0.000808	0.908	–
298.15 K, x1 = 0.000907	0.902	0.902
298.15 K, x1 = 0.00135	0.913	–
298.15 K, x1 = 0.0015	–	0.893
298.15 K, x1 = 0.00162	0.916	–
303.15 K, x1 = 0.000542	0.809	–
303.15 K, x1 = 0.000808	0.812	–
303.15 K, x1 = 0.00108	0.814	–
308.15 K, x1 = 0.000452	–	0.7233
308.15 K, x1 = 0.0005074	–	0.7239
308.15 K, x1 = 0.00108	0.746	–
308.15 K, x1 = 0.001153	–	0.7288
308.15 K, x1 = 0.001301	–	0.7321
308.15 K, x1 = 0.00135	0.75	–
308.15 K, x1 = 0.00136	0.732	0.732
308.15 K, x1 = 0.001617	–	0.7347
308.15 K, x1 = 0.00162	0.754	–
308.15 K, x1 = 0.001957	–	0.7385
313.15 K, x1 = 0.000808	0.673	–
313.15 K, x1 = 0.00108	0.677	–
313.15 K, x1 = 0.00135	0.681	–
313.15 K, x1 = 0.00162	0.685	–
318.15 K, x1 = 0.000225	0.5976	0.5976
318.15 K, x1 = 0.000268	0.61	–
318.15 K, x1 = 0.000542	0.614	–
318.15 K, x1 = 0.0007	–	0.584
318.15 K, x1 = 0.0007821	–	0.602
318.15 K, x1 = 0.000808	0.617	–
318.15 K, x1 = 0.000907	0.6036	0.6036
318.15 K, x1 = 0.00108	0.62	–
318.15 K, x1 = 0.001153	–	0.6035
318.15 K, x1 = 0.00135	0.624	–
318.15 K, x1 = 0.00136	0.608	0.608
318.15 K, x1 = 0.0015	–	0.587
318.15 K, x1 = 0.001617	–	0.6081
318.15 K, x1 = 0.00162	0.628	–
318.15 K, x1 = 0.001957	–	0.61
318.15 K, x1 = 0.0022	–	0.589

O=[N+]([O-])[O-].[Li+] + O
100 kPa
Conditions	viscosity [mPa·s]
298.11 K, x1 = 0.0088	0.9305
298.18 K, x1 = 0.00475	0.9105
298.35 K, x1 = 0.01898	0.9846
298.45 K, x1 = 0.02699	1.04
306.75 K, x1 = 0.02699	0.8753
307.65 K, x1 = 0.01898	0.8088
307.85 K, x1 = 0.00475	0.746
308.95 K, x1 = 0.0088	0.7411

OC[C@@H](O)[C@@H](O)CO + O
viscosity [mPa·s], 101.3 kPa
Conditions	x1 = 0.003586	x1 = 0.007154	x1 = 0.01069	x1 = 0.01421	x1 = 0.0177	x1 = 0.02631	x1 = 0.03478	x1 = 0.0431	x1 = 0.05128
293.15 K	–	–	–	1.25	–	1.53	1.78	2.04	2.32
303.15 K	0.84	0.89	0.95	0.99	1.07	1.18	1.36	1.54	1.73
313.15 K	–	0.71	0.76	0.79	0.85	0.94	1.05	1.18	1.33
323.15 K	0.57	0.6	0.64	0.66	0.71	0.77	0.87	0.95	1.06

[F-].[Na+] + O
viscosity [mPa·s], 101 kPa
Conditions	x1 = 0.0009	x1 = 0.0018	x1 = 0.002	x1 = 0.0027	x1 = 0.0036	x1 = 0.005	x1 = 0.009
303.15 K	0.809	0.82	0.819	0.826	0.835	0.853	0.896
308.15 K	0.734	0.746	0.747	0.755	0.761	0.775	0.81
313.15 K	0.667	0.682	–	0.688	0.694	0.707	0.738
318.15 K	0.61	0.621	0.623	0.629	0.635	0.648	0.675
